Results: patent US6835382B2, “Ii peptide therapeutics to enhance antigen presentation” (University of Massachusetts, priority 1996, dated 2004)
Non-standard residues stand in square brackets, D forms with d.

How the values were obtained:
[1] = biological target: T1, murine E^d MHC class II allele (Mus musculus, UniProt P01904+P01915); assay: simultaneous assay, E^d allele (A20 APC, G28.C9 T hybridoma, HEL106-116; HT-2 [3H]TdR readout); type: cell-based; set-up: The A20 and CH27 B cell lymphoma lines express H-2^d and H-2^k alleles, respectively; endogenous in cells; host or cells: A20 B cell lymphoma (mitomycin C-treated or paraformaldehyde-fixed)
T1 sequence (P01904 26-255): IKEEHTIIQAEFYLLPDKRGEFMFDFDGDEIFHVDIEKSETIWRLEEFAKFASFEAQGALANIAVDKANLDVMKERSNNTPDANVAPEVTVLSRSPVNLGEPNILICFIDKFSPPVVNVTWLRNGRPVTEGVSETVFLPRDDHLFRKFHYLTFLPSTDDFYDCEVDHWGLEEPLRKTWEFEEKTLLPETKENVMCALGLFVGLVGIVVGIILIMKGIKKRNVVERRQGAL
T1 sequence (P01915 27-264 limits assumed): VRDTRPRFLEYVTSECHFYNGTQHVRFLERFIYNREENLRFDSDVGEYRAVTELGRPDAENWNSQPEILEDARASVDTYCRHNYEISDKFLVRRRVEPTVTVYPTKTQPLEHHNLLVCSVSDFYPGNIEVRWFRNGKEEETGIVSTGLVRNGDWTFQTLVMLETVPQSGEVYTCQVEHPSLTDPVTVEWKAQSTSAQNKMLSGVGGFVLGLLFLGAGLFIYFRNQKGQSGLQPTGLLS
Outline: (§1)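 Read-out is [3H]TdR incorporation into HT-2 indicator cells exposed to supernatant from a 24 h primary culture. That culture combined mitomycin C-treated APC (5×10^6 cells/mL, 0.025 mg/mL mitomycin C, 20 min, 37° C), peptide, effector compound and T hybridoma, all added at once.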

[2] = system: murine E^k MHC class II allele; assay: simultaneous assay, E^k allele (CH27 APC, TPc9.1 T hybridoma, THMCC82-103 or PGCC81-104); type: cell-based
Outline: as §1

[3] = Table 4, AE109 homolog 64 μM, supernatant 1:2
[4] = Table 16, AE peptide 4 μM, supernatant 1:8
[5] = Table 1, AE peptide 16 μM (second value), 0.4 μM HEL106-116, supernatant 1:4
[6] = Table 1, AE peptide 64 μM (first value), 0.4 μM HEL106-116, supernatant 1:4
[7] = Table 1, AE peptide 16 μM (second value), 0.075 μM THMCC82-103, supernatant 1:2
[8] = Table 1, AE peptide 64 μM (first value), 0.075 μM THMCC82-103, supernatant 1:2

Ac-Y D MKLPKSAK-NH2 [AE135]
Times Baseline Response, E^d [1, 3]: 1.2
Times Baseline Response, E^k [2, 3]: 1.0

Ac-Y E MKLPKSAK-NH2 [AE136]
Times Baseline Response, E^d [1, 3]: 0.9
Times Baseline Response, E^k [2, 3]: 0.7

Ac-Y F MKLPKSAK-NH2 [AE139]
Times Baseline Response, E^d [1, 3]: 0.8
Times Baseline Response, E^k [2, 3]: 1.5

Ac-Y H MKLPKSAK-NH2 [AE133]
Times Baseline Response, E^d [1, 3]: 0.9
Times Baseline Response, E^k [2, 3]: 0.8

Ac-Y K MKLPKSAK-NH2 [AE134]
Times Baseline Response, E^d [1, 3]: 0.7
Times Baseline Response, E^d [1, 4]: 1.2
Times Baseline Response, E^k [2, 3]: 0.9
Times Baseline Response, E^k [2, 4]: 1.3

Ac-Y L MKLPKSAK-NH2 [AE142]
Times Baseline Response, E^d [1, 3]: 0.8
Times Baseline Response, E^k [2, 3]: 1.0

Ac-Y M MKLPKSAK-NH2 [AE141]
Times Baseline Response, E^d [1, 3]: 1.1
Times Baseline Response, E^k [2, 3]: 1.3

Ac-Y N MKLPKSAK-NH2 [AE137]
Times Baseline Response, E^d [1, 3]: 0.8
Times Baseline Response, E^k [2, 3]: 0.7

Ac-Y Q MKLPKSAK-NH2 [AE138]
Times Baseline Response, E^d [1, 3]: 0.7
Times Baseline Response, E^k [2, 3]: 0.8

Ac-Y Y MKLPKSAK-NH2 [AE140]
Times Baseline Response, E^d [1, 3]: 0.7
Times Baseline Response, E^k [2, 3]: 0.9

Ac-YAMKLPKSAK-NH2 [AE121]
Times Baseline Response, E^d [1, 3]: 1.1
Times Baseline Response, E^d ([1]; Table 10, AE peptide 16 μM (second value), supernatant 1:2): 1.9
Times Baseline Response, E^d ([1]; Table 10, AE peptide 64 μM (first value), supernatant 1:2): 2.7
Times Baseline Response, E^k [2, 3]: 1.0
Times Baseline Response, E^k ([2]; Table 10, AE peptide 64 μM, supernatant 1:2 (first value)): 21.6
Times Baseline Response, E^k ([2]; Table 10, AE peptide 64 μM, supernatant 1:4 (second value)): 19.7

Ac-YRM-NH2 [AE118]
Times Baseline Response, E^d [1, 5]: 0.6
Times Baseline Response, E^d [1, 6]: 1.0
Times Baseline Response, E^k [2, 7]: 3.0
Times Baseline Response, E^k [2, 8]: 5.6

Ac-YRMK-NH2 [AE117]
Times Baseline Response, E^d [1, 5]: 1.0
Times Baseline Response, E^d [1, 6]: 2.3
Times Baseline Response, E^k [2, 7]: 10.6
Times Baseline Response, E^k [2, 8]: 14.6

Ac-YRMKL hydrP KSAK-NH2 (Ac-YRMKL[hydrP]KSAK-NH2) [AE143]
Times Baseline Response, E^d ([1]; Table 8, AE peptide 4 μM (third), supernatant 1:8): 8.0
Times Baseline Response, E^d ([1]; Table 8, AE peptide 16 μM (second), supernatant 1:8): 19.6,
Times Baseline Response, E^d ([1]; Table 8, AE peptide 64 μM (first), supernatant 1:8): 19.4,
Times Baseline Response, E^k ([2]; Table 8, AE peptide 4 μM (third), supernatant 1:4): 0.98
Times Baseline Response, E^k ([2]; Table 8, AE peptide 16 μM (second), supernatant 1:4): 1.5,
Times Baseline Response, E^k ([2]; Table 8, AE peptide 64 μM (first), supernatant 1:4): 4.2,

Ac-YRMKL-NH2 [AE116]
Times Baseline Response, E^d [1, 5]: 2.1
Times Baseline Response, E^d [1, 6]: 7.1
Times Baseline Response, E^k [2, 7]: 3.2
Times Baseline Response, E^k [2, 8]: 15.5

Ac-YRMKLP-NH2 [AE115]
Times Baseline Response, E^d [1, 5]: 5.7
Times Baseline Response, E^d [1, 6]: 19.9
Times Baseline Response, E^k [2, 7]: 3.8
Times Baseline Response, E^k [2, 8]: 18.6

Ac-YRMKLPK-NH2 [AE113]
Times Baseline Response, E^d [1, 5]: 23.1
Times Baseline Response, E^d [1, 6]: 36.3
Times Baseline Response, Ed ([1]; Table 3, AE peptide 64 μM, supernatant 1:4): 12.3
Times Baseline Response, E^k [2, 7]: 6.7
Times Baseline Response, E^k [2, 8]: 15.5
Times Baseline Response, Ek ([2]; Table 3, AE peptide 64 μM, supernatant 1:4, values reduced relative to E^d by a factor of 10): 24.9
